The values that follow come from paper PMC4412152, “Human olfactory receptor responses to odorants” (Scientific Data, 2015).

Holding throughout (assay): CRE-luciferase cAMP reporter (Dual-Glo), Hana3A cells
What all share (format): cell-based

For one assay, the target named is T1, OR2J3 (Homo sapiens, UniProt O76001).
T1 construct: full-length ORF with N-terminal Rho tag, pCI, Hana3A cells with RTP1S; four clones with the same label
T1 sequence (O76001 1-311): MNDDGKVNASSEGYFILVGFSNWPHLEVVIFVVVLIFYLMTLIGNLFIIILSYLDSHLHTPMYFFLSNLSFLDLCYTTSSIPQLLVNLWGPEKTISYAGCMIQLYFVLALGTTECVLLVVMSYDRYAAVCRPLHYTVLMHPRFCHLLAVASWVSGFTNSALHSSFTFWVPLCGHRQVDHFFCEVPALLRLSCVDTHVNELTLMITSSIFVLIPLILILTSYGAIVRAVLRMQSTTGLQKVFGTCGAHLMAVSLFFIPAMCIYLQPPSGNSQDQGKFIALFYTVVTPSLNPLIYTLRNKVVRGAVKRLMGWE
From the text:
CRE-luciferase cAMP reporter (Dual-Glo), Hana3A cells on OR2J3

The target in the next assay is T2, OR4F17 (Homo sapiens, UniProt Q8NGA8).
T2 construct: full-length ORF with N-terminal Rho tag, pCI, Hana3A cells with RTP1S
T2 sequence (Q8NGA8 1-305): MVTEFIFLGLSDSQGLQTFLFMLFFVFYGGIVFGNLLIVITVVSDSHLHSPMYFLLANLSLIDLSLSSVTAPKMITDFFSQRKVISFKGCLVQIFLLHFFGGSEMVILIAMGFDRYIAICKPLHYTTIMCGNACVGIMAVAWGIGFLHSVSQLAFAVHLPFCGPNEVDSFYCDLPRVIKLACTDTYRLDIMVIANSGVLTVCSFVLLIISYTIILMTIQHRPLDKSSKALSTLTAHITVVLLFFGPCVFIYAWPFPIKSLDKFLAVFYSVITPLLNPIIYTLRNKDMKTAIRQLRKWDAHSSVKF
The text has this:
CRE-luciferase cAMP reporter (Dual-Glo), Hana3A cells on OR4F17

For assay [1], the target named is T3, OR2T1 (Homo sapiens, UniProt A0A126GWK9).
T3 construct: full-length ORF with N-terminal Rho tag, pCI, Hana3A cells with RTP1S; two clones with the same label
T3 sequence (A0A126GWK9 1-318): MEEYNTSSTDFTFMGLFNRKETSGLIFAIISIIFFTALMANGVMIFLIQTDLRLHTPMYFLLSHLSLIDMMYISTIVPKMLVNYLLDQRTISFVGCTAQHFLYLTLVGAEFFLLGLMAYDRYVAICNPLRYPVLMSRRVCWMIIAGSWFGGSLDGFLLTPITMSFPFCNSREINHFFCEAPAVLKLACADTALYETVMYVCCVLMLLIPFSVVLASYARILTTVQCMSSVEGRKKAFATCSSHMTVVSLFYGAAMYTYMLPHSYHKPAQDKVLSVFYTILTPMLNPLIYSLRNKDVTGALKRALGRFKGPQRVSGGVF
The text has this:
(§1) CRE-luciferase cAMP reporter (Dual-Glo), Hana3A cells on OR2T1

Assay [2] deals with T4, OR2T1 (Homo sapiens, UniProt A0A126GWK9, I76V).
T4 construct: full-length ORF with N-terminal Rho tag, pCI, Hana3A cells with RTP1S; two clones with the same label
T4 sequence (A0A126GWK9 1-318 I76V): T3 sequence (A0A126GWK9 1-318) with I76V
Text: as §1

For another assay, the target named is T5, OR56A4 (Homo sapiens, UniProt Q8NGH8).
T5 construct: full-length ORF with N-terminal Rho tag, pCI, Hana3A cells with RTP1S
T5 sequence (Q8NGH8 1-313): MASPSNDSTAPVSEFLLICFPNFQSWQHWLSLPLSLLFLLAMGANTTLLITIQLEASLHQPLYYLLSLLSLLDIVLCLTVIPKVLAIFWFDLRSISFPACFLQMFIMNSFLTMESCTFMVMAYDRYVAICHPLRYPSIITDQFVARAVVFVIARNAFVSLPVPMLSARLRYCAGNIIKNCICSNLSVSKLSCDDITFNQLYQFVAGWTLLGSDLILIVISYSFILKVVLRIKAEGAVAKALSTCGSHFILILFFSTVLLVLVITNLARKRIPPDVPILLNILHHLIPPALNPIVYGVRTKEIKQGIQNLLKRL
From the text: CRE-luciferase cAMP reporter (Dual-Glo), Hana3A cells on OR56A4

A further assay addresses T6, OR10G4 (Homo sapiens, UniProt Q8NGN3, K295Q).
T6 construct: full-length ORF with N-terminal Rho tag, pCI, Hana3A cells with RTP1S; two clones with the same label
T6 sequence (Q8NGN3 1-311 K295Q): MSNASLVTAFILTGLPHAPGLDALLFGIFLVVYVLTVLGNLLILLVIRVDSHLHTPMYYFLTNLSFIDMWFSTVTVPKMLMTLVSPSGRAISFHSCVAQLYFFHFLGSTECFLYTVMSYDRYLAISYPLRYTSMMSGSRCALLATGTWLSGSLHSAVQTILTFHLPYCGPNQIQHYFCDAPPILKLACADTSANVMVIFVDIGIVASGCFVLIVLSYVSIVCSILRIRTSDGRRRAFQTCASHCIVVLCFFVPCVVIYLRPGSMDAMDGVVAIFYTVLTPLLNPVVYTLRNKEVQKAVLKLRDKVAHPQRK
From the text:
CRE-luciferase cAMP reporter (Dual-Glo), Hana3A cells on OR10G4

The next assay deals with T7, OR8D1 (Homo sapiens, UniProt Q8WZ84).
T7 construct: full-length ORF with N-terminal Rho tag, pCI, Hana3A cells with RTP1S
T7 sequence (Q8WZ84 1-308): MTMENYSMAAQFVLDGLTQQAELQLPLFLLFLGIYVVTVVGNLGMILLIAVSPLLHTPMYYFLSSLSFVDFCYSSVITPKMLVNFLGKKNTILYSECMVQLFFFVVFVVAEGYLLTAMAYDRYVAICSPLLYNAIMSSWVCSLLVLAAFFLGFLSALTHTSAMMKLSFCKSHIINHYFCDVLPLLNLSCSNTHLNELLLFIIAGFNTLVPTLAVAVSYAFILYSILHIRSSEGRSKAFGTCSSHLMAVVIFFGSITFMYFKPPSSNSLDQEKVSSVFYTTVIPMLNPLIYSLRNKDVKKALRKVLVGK
The settings on record: agonist; rounded to whole log unit. The text has this:
CRE-luciferase cAMP reporter (Dual-Glo), Hana3A cells on OR8D1

Changes are numbered by the printed parent chain.

Consider `CCCCCOC(C)=O` [compound 1078, n-amyl acetate], for which, on OR2J3, the EC50 was 1 µM.
`C[C@]12CCC(=O)C[C@@H]1CC[C@@H]1[C@@H]2CC[C@]2(C)C=CC[C@@H]12` [compound 1290, 5α-androst-16-en-3-one]: the EC50 on OR4F17 is 1000 µM.
Consider `CCCC(=O)O` [compound 1295, butyric acid], for which the EC50 at OR2T1 [1] and at OR2T1 [2] was 100 µM in each case.
As to `CC/C=C\CCO` [compound 1300, cis-3-hexen-1-ol], at OR2J3, the EC50 is 10 µM.
On the same count and under the same terms, then `CC(=O)OC/C=C(\C)CCC=C(C)C` [compound 1316, geranyl acetate], with 1000 µM.
On to `CCCCCCCCCCC=O` [compound 1345, undecanal], for which the EC50 on OR56A4 is 0.1 µM.
Turning to `COc1cc(C=O)ccc1O` [compound 1346, vanillin], the EC50 on OR10G4 was 10 µM.
The compound caramel furanone [compound 1396] gave an EC50 on OR8D1 of −5 log10 M.
